Common to all, as to type: cell-based
The subject of test [1] is A549luc cells. Put plainly: Colony formation (clonogenic) assay, A549luc cells. Particulars: Homo sapiens, 168 h; A549 luc, harvested 7 days after initial treatment. The protocol: (§1) Protocol for clonogenic assay follows Sangodkar et al., J Clin Invest 2012; 122:2637-51.
(§2) Cell culture and staining: For both A549luc and H1650 cells, 500 cells are seeded into each well of a 6-well plate and allowed to attach for 24 hours before drug treatment. The following day, cells are treated with either the appropriate dose of drug or an equivalent volume of DMSO (two replicates were treated for each condition). For each condition, depleted media was replaced with fresh media containing the equivalent drug dose four days after initial treatment. Cells are harvested either 7 (A549 luc) or 8 (H1650) days after initial treatment. Briefly, medium is aspirated from each well and the cells are washed twice with ice-cold PBS, then plates are allowed to dry at room temperature for 4 hours. Cells are fixed for one hour in a fixing solution consisting of 10% methanol and 10% glacial acetic acid in distilled water, then stained overnight in 1% (w/v) crystal violet dissolved in methanol. The next day, staining solution is aspirated from the wells and plates are washed gently with distilled water to remove excess stain before colony counting. Colonies are imaged on a ChemiDoc XRS+ (Bio-Rad) and images are exported as 8-bit TIFF files. Colonies are counted using the Colony Counter plugin in ImageJ, with colony size defined as between 4 and 400 square pixels, and minimum circularity set at 0.6. Duplicate wells are averaged to obtain a single value for each condition. Results (number of colonies) for A549 luc cells and results (number of colonies) for H1650 cells may be analyzed separately.

Test [2] deals with H1650 cells. Put plainly: Colony formation (clonogenic) assay, H1650 cells. Particulars: Homo sapiens, NCI-H1650, 192 h; H1650, harvested 8 days after initial treatment. As to the method: as §1, §2
The subject of test [3] is H1650 lung cancer cells. Put plainly: Cell viability assay (MTT), H1650 lung cancer cells. Particulars: for GI50 / pIC50: Homo sapiens, NCI-H1650; for pIC50: H1650 lung cancer cells, 48 h drug treatment, MTT. The protocol:
Cell Viability Assays (IC50 Determination)
Cell viability assays were performed according to Denizot, F. and R. Lang, Journal of Immunological Methods, 1986. 89(22): p. 271-277. H1650 lung cancer cells were plated at 150,000 cells per well in a 12 well plate. Twenty-four hours after plating, cells were treated as described with increasing concentrations of drug and control. Forty-eight hours after drug treatment, cells were treated with 100 μL of 3-(4,5-Dimethylthiazol-2-yl)-2,5-diphenyltetrazolium bromide (MTT) and incubated for 2 hours at 37 C. The MTT solution was subsequently replaced with 300 μL of n-propyl alcohol and re-aliquoted to a 96 well plate. Spectrophotometric analysis of each solution was performed using a 96 well plate reader at 600 nm in triplicate.

Molecules are shown by their SMILES. pIC50: −log10 of the molar value.

On to `O=S(=O)(N[C@@H]1CCCC(N2c3ccccc3Oc3ccccc32)[C@H]1O)c1ccc(OC(F)(F)F)cc1` (mixture of isomers) [Example 1, N-(2-hydroxy-3-(10H-phenoxazin-10-yl)cyclohexyl)-4-(trifluoromethoxy)benzenesulfonamide], for which the GI50 came to 7.5 µM in test [1], 5 µM in test [2] and 5 µM in test [3] (H1650 cells). In test [3], this molecule gave a pIC50 of 5.30. The molecule `O=S(=O)(N[C@@H]1CCCC(N2c3ccccc3COc3ccccc32)[C@H]1O)c1ccc(OC(F)(F)F)cc1` (mixture of isomers) [Example 2, N-((1R,2R,3S)-rel-3-(dibenzo[b,e][1,4]oxazepin-5(11H)-yl)-2-hydroxycyclohexyl)-4-(trifluoromethoxy)benzenesulfonamide] registered a GI50 in test [3] (H1650 cells) of 20 µM. In addition, the pIC50 in test [3] is 4.70. For `O=S(=O)(N[C@@H]1CCCC(n2c3ccccc3c3ccccc32)[C@H]1O)c1ccc(OC(F)(F)F)cc1` (mixture of isomers) [Example 3, (1S,2S,3R)-rel-N-(3-(9H-carbazol-9-yl)-2-hydroxycyclohexyl)-4-(trifluoromethoxy)benzenesulfonamide], the GI50 in test [1] was found to be 7.5 µM; in test [2], 5 µM; in test [3] (H1650 cells), 10 µM. The molecule also showed a pIC50 in test [3] of 5.00.

In test [3] (H1650 cells), `O=S(=O)(N[C@@H]1CCCC(N2c3ccccc3Oc3ccccc32)[C@H]1O)c1ccc(SC(F)(F)F)cc1` (mixture of isomers) [Example 16] gave a 50% growth inhibitory concentration (GI50) of 10 µM. On the same count and under the same terms, in the case of `O=S(=O)(N[C@@H]1CCCC(N2c3ccccc3Oc3ccccc32)[C@H]1O)c1ccc(OC(F)(F)F)cc1Cl` (mixture of isomers) [Example 17] it was 15 µM; in that of `O=S(=O)(N[C@@H]1CCCC(N2c3ccccc3Oc3ccccc32)[C@H]1O)c1ccc(CC(F)(F)F)cc1` (mixture of isomers) [Example 18], 15 µM.

Regarding `O=S(=O)(N[C@@H]1CCCC(N2c3ccccc3Oc3ccccc32)[C@H]1O)c1ccc(C(F)(F)C(F)(F)F)cc1` (mixture of isomers) [Example 19], the 50% growth inhibitory concentration (GI50) in test [3] (H1650 cells) was 10 µM.

As to `O=S(=O)(N[C@@H]1CCCC(N2c3ccccc3Oc3ccccc32)[C@H]1O)c1ccc(OC(F)F)cc1` (mixture of isomers) [Example 20], it took 25 µM to inhibit growth in test [3] (H1650 cells) by half (GI50). On the same count and under the same terms, in the case of `O=S(=O)(N[C@@H]1CCCC(N2c3ccccc3Oc3ccccc32)[C@H]1O)c1ccc(OC(F)(F)F)c(Cl)c1` (mixture of isomers) [Example 21] it was 15 µM. In test [3] (H1650 cells), `O=S(=O)(N[C@@H]1CCCC(n2c3ccc(Cl)cc3c3cc(Cl)ccc32)[C@H]1O)c1ccc(OC(F)(F)F)cc1` (mixture of isomers) [Example 22] had a GI50 of 5 µM. In test [3] (H1650 cells), `O=S(=O)(N[C@@H]1CCCC(n2c3ccc(Cl)cc3c3cc(Cl)ccc32)[C@H]1O)c1ccc(Cl)cc1` (mixture of isomers) [Example 23] displayed a GI50 of 5 µM. In test [3] (H1650 cells), `O=S(=O)(N[C@@H]1CCCC(n2c3ccc(Br)cc3c3cc(Br)ccc32)[C@H]1O)c1ccc(OC(F)(F)F)cc1` (mixture of isomers) [Example 24] registered a GI50 of 5 µM.

Turning to `O=S(=O)(N[C@@H]1CCCC(n2c3ccc(Br)cc3c3cc(Br)ccc32)[C@H]1O)c1ccc(Cl)cc1` (mixture of isomers) [Example 25], halving of growth in test [3] (H1650 cells) (GI50) required 15 µM. On to `N#Cc1ccc2c(c1)c1cc(C#N)ccc1n2C1CCC[C@@H](NS(=O)(=O)c2ccc(OC(F)(F)F)cc2)[C@@H]1O` (mixture of isomers) [Example 26], for which the “H1650 GI50” value in test [3] (H1650 cells) is on record as “Weak”. Turning to `N#Cc1ccc2c(c1)c1cc(Br)ccc1n2C1CCC[C@@H](NS(=O)(=O)c2ccc(OC(F)(F)F)cc2)[C@@H]1O` (mixture of isomers) [Example 27], in test [3] (H1650 cells), the 50% growth inhibitory concentration (GI50) came to 5 µM. In test [3] (H1650 cells), `N#Cc1ccc2c(c1)c1ccccc1n2C1CCC[C@@H](NS(=O)(=O)c2ccc(OC(F)(F)F)cc2)[C@@H]1O` (mixture of isomers) [Example 28] registered a GI50 of 10 µM.

`COC(=O)c1ccc2c(c1)c1ccccc1n2C1CCC[C@@H](NS(=O)(=O)c2ccc(OC(F)(F)F)cc2)[C@@H]1O` (mixture of isomers) [Example 29]: halving of growth in test [3] (H1650 cells) (GI50) required 15 µM. For `O=S(=O)(N[C@@H]1CCCC(n2c3ccccc3c3cc(Br)ccc32)[C@H]1O)c1ccc(OC(F)(F)F)cc1` (mixture of isomers) [Example 30], the concentration for 50% growth inhibition (GI50) in test [3] (H1650 cells) turned out to be 5 µM.

Molecule `O=S(=O)(N[C@@H]1CCCC(n2c3ccccc3c3ccccc32)[C@H]1O)c1ccc(Cl)cc1` (relative stereo) [Example 4, N-((1S,2S,3R)-rel-3-(9H-carbazol-9-yl)-2-hydroxycyclohexyl)-4-chlorobenzenesulfonamide] displayed a GI50 in test [3] (H1650 cells) of 15 µM. In test [3], this molecule had a negative-log IC50 (pIC50) of 4.82. For `N#Cc1ccc(S(=O)(=O)N[C@@H]2CCCC(n3c4ccccc4c4ccccc43)[C@H]2O)cc1` (relative stereo) [Example 5, N-((1S,2S,3R)-rel-3-(9H-carbazol-9-yl)-2-hydroxycyclohexyl)-4-cyanobenzenesulfonamide], in that order: 20 µM and 4.70. For `COc1ccc(S(=O)(=O)N[C@@H]2CCCC(n3c4ccccc4c4ccccc43)[C@H]2O)cc1` (relative stereo) [Example 6, N-((1S,2S,3R)-rel-3-(9H-carbazol-9-yl)-2-hydroxycyclohexyl)-4-methoxybenzenesulfonamide], in that order: 20 µM and 4.70. With `O=S(=O)(N[C@@H]1CCCC(n2c3ccccc3c3ccccc32)[C@H]1O)c1ccccc1` (relative stereo) [Example 7, N-((1S,2S,3R)-rel-3-(9H-carbazol-9-yl)-2-hydroxycyclohexyl) benzenesulfonamide], the GI50 in test [3] (H1650 cells) was 25 µM. Moreover, the pIC50 in test [3] was 4.60. For `CN1C(=O)c2ccccc2N(C2CCC[C@@H](NS(=O)(=O)c3ccc(OC(F)(F)F)cc3)[C@@H]2O)c2ccccc21` (relative stereo) [Example 8, 4-Trifluoromethoxy-N-((1S,2S,3R)-rel-2-hydroxy-3-(10-methyl-11-oxo-10,11-dihydro-5H-dibenzo[b,e][1,4]diazepin-5-yl)cyclohexyl)benzenesulfonamide], in that order: 15 µM and 4.82. For `CN1C(=O)c2ccccc2N(C2CCC[C@@H](NS(=O)(=O)c3ccc(Cl)cc3)[C@@H]2O)c2ccccc21` (relative stereo) [Example 9, 4-Chloro-N-((1S,2S,3R)-rel-2-hydroxy-3-(10-methyl-11-oxo-10,11-dihydro-5H-dibenzo[b,e][1,4]diazepin-5-yl)cyclohexyl)benzenesulfonamide], in that order: 25 µM and 4.60. Regarding `O=S(=O)(N[C@H]1CCC[C@@H](N2c3ccccc3Oc3ccccc32)[C@@H]1O)c1ccc(OC(F)(F)F)cc1` (single isomer, unassigned) [Example 1b], the GI50 came to 7.5 µM in test [1], 5 µM in test [2] and 5 µM in test [3] (H1650 cells). For the molecule `O=S(=O)(N[C@H]1CCC[C@@H](n2c3ccccc3c3ccccc32)[C@@H]1O)c1ccc(OC(F)(F)F)cc1` (single isomer, unassigned) [Example 3b], the values for the GI50 in test [1], in test [2] and in test [3] (H1650 cells) were 10 µM, 7.5 µM and 10 µM, respectively. For the molecule `O=S(=O)(N[C@H]1CCC[C@@H](n2c3ccccc3c3cc(F)ccc32)[C@@H]1O)c1ccc(OC(F)(F)F)cc1` (stereo in doubt) [Example 31b, N-((1S,2S,3R)-3-(3-fluoro-9H-carbazol-9-yl)-2-hydroxycyclohexyl)-4-(trifluoromethoxy)benzenesulfonamide], the GI50 in test [3] (H1650 cells) is 5 µM.

In test [3] (H1650 cells), `O=S(=O)(N[C@H]1CCC[C@@H](n2c3ccccc3c3cc(F)ccc32)[C@@H]1O)c1ccc(OC(F)(F)F)cc1` [Example 31a, N-((1S,2S,3R)-3-(3-fluoro-9H-carbazol-9-yl)-2-hydroxycyclohexyl)-4-(trifluoromethoxy)benzenesulfonamide] displayed a GI50 of 5 µM. Same read-out and setting: with `O=S(=O)(N[C@H]1CCC[C@@H](n2c3ccc(F)cc3c3cc(F)ccc32)[C@@H]1O)c1ccc(OC(F)(F)F)cc1` [Example 32a, N-((1S,2S,3R)-3-(3,6-difluoro-9H-carbazol-9-yl)-2-hydroxycyclohexyl)-4-(trifluoromethoxy)benzenesulfonamide] the figure was 5 µM. Turning to `O=S(=O)(N[C@@H]1CCC[C@H](n2c3ccc(F)cc3c3cc(F)ccc32)[C@H]1O)c1ccc(OC(F)(F)F)cc1` [Example 32b], the GI50 in test [3] (H1650 cells) worked out at 5 µM.

The record behind these values is patent US9937186B2, “Sulfonamides derived from tricyclyl-2-aminocycloalkanols as anticancer agents” (ICAHN SCHOOL OF MEDICINE AT MOUNT SINAI, priority 2014, dated 2018).
